Measurements as given in publication PMC4303209, “A novel phosphatidylinositol 3-kinase (PI3K) inhibitor directs a potent FOXO-dependent, p53-independent cell cycle arrest phenotype characterized by the differential induction of a subset of FOXO-regulated genes” (Breast Cancer Research : BCR, 2014).

System: MCF-7 breast cancer cells
Test: Microarray gene expression analysis (Agilent whole human genome 4 x 44K; compound vs DMSO, LIMMA log2 fold change)
Type: cell-based
Conditions: Apoptosis genes

Cn1ncc2c(N3CCOCC3)nc(-c3cccc(O)c3)nc21 [ETP-45658]
KALRN log2FC (Gene 8997): 0.091 | SOCS3 log2FC (Gene 9021): -1.264 | BRSK2 log2FC (Gene 9024): -0.150 | UBE2M log2FC (Gene 9040): -0.487 | SART1 log2FC (Gene 9092): -0.304 | DNAJA3 log2FC (Gene 9093): 0.296 | RABEP1 log2FC (Gene 9135): 0.616 | ARHGEF2 log2FC (Gene 9181): -0.734 | DEDD log2FC (Gene 9191): -0.182 | AURKB log2FC (Gene 9212): -0.212 | FAIM3 log2FC (Gene 9214): -0.667 | DLG5 log2FC (Gene 9231): -0.344 | PNMA1 log2FC (Gene 9240): 0.386 | NOG log2FC (Gene 9241): -0.420 | CRLF1 log2FC (Gene 9244): -0.116 | STK17B log2FC (Gene 9262): 0.460 | STK17A log2FC (Gene 9263): 0.274 | BCL7C log2FC (Gene 9274): -0.273 | TAOK2 log2FC (Gene 9344): -0.736 | SLIT2 log2FC (Gene 9353): 0.124 | SLC9A3R1 log2FC (Gene 9368): -0.593 | TJP2 log2FC (Gene 9414): 0.142 | NTN1 log2FC (Gene 9423): -0.272 | ITM2B log2FC (Gene 9445): 0.364 | AIM2 log2FC (Gene 9447): -0.111 | LY86 log2FC (Gene 9450): -0.441 | EIF2AK3 log2FC (Gene 9451): 0.631 | HAND2 log2FC (Gene 9464): -0.617 | ATG5 log2FC (Gene 9474): -0.569 | ROCK2 log2FC (Gene 9475): 0.291 | MAPK8IP1 log2FC (Gene 9479): -0.208 | SLC25A27 log2FC (Gene 9481): 0.161 | PSMF1 log2FC (Gene 9491): -0.383 | LITAF log2FC (Gene 9516): -0.463 | EEF1E1 log2FC (Gene 9521): 0.192 | BAG4 log2FC (Gene 9530): 0.066 | BAG3 log2FC (Gene 9531): -0.998 | EI24 log2FC (Gene 9538): -0.507 | BCAR1 log2FC (Gene 9564): -0.597 | BRE log2FC (Gene 9577): -0.322 | RNF7 log2FC (Gene 9616): -0.220 | TRAF4 log2FC (Gene 9618): -0.910 | AATK log2FC (Gene 9625): 1.732 | IKBKE log2FC (Gene 9641): -0.592 | PPM1F log2FC (Gene 9647): -0.513 | RAPGEF2 log2FC (Gene 9693): 0.863 | ESPL1 log2FC (Gene 9700): 0.453 | HERPUD1 log2FC (Gene 9709): 0.217 | SLK log2FC (Gene 9748): 0.938 | BCLAF1 log2FC (Gene 9774): 0.733 | KIAA0141 log2FC (Gene 9812): 0.422 | RB1CC1 log2FC (Gene 9821): 1.457 | ARHGEF11 log2FC (Gene 9826): -0.194 | ARHGEF17 log2FC (Gene 9828): 0.130 | MELK log2FC (Gene 9833): 0.433 | PSMD6 log2FC (Gene 9861): 0.300 | ARNT2 log2FC (Gene 9915): -0.108 | THOC1 log2FC (Gene 9984): 0.606 | CASP8AP2 log2FC (Gene 9994): 0.813 | SRA1 log2FC (Gene 10011): -0.924 | PDCD6IP log2FC (Gene 10015): 0.516 | PDCD6 log2FC (Gene 10016): -0.540 | BCL2L11 log2FC (Gene 10018): 0.145 | PARP2 log2FC (Gene 10038): 0.419 | DNAJB6 log2FC (Gene 10049): 0.317 | DNM1L log2FC (Gene 10059): 0.674 | PDCD7 log2FC (Gene 10081): 0.102 | PPIF log2FC (Gene 10105): -1.006 | FEM1B log2FC (Gene 10116): -0.258 | BCAP31 log2FC (Gene 10134): -0.393 | RBM5 log2FC (Gene 10181): 0.716 | RNF41 log2FC (Gene 10193): 0.235 | PSME3 log2FC (Gene 10197): -1.314 | DHRS2 log2FC (Gene 10202): 0.711 | TOPORS log2FC (Gene 10210): 0.700 | PSMD14 log2FC (Gene 10213): 0.447 | SPRY2 log2FC (Gene 10253): -1.064 | NET1 log2FC (Gene 10276): 0.571 | UBE4B log2FC (Gene 10277): -0.652 | SAP18 log2FC (Gene 10284): 0.262 | TRAIP log2FC (Gene 10293): 0.639 | MAEA log2FC (Gene 10296): -0.219 | PAK4 log2FC (Gene 10298): -0.601 | RTN3 log2FC (Gene 10313): -0.201 | CITED2 log2FC (Gene 10370): 2.261 | SEMA3A log2FC (Gene 10371): 0.054 | DLC1 log2FC (Gene 10395): -0.918 | GNB2L1 log2FC (Gene 10399): -0.052 | YAP1 log2FC (Gene 10413): 0.283 | CFDP1 log2FC (Gene 10428): 0.559 | C1D log2FC (Gene 10438): 0.287 | ACAA2 log2FC (Gene 10449): 0.222 | VAV3 log2FC (Gene 10451): 2.242 | STK25 log2FC (Gene 10494): 0.126 | SEMA4D log2FC (Gene 10507): 0.201 | MYBBP1A log2FC (Gene 10514): -0.538 | CIB1 log2FC (Gene 10519): -0.090 | ATG7 log2FC (Gene 10533): -0.393 | HTATIP2 log2FC (Gene 10553): 0.241 | ERN2 log2FC (Gene 10595): -0.829 | RBCK1 log2FC (Gene 10616): -0.413 | STAMBP log2FC (Gene 10617): 0.425 | IVNS1ABP log2FC (Gene 10625): 0.124 | TXNIP log2FC (Gene 10628): 2.131 | RRAGA log2FC (Gene 10670): -0.331 | PNMA2 log2FC (Gene 10687): -0.069 | CHL1 log2FC (Gene 10752): 0.057 | NES log2FC (Gene 10763): -0.458 | PLK2 log2FC (Gene 10769): -0.887 | ZMYND11 log2FC (Gene 10771): 0.411 | NEK6 log2FC (Gene 10783): -0.620 | NCKAP1 log2FC (Gene 10787): 0.702 | ZNF268 log2FC (Gene 10795): 0.304 | PPP1R13L log2FC (Gene 10848): 0.207 | LILRB1 log2FC (Gene 10859): -0.164 | MRPS30 log2FC (Gene 10884): 0.391 | PROKR1 log2FC (Gene 10887): -0.235 | PPARGC1A log2FC (Gene 10891): 0.117 | MALT1 log2FC (Gene 10892): -0.183 | JTB log2FC (Gene 10899): -0.124 | BLCAP log2FC (Gene 10904): -0.662 | EDAR log2FC (Gene 10913): -0.358 | RNPS1 log2FC (Gene 10921): -0.273 | FASTK log2FC (Gene 10922): -0.423 | PRDX3 log2FC (Gene 10935): 0.630 | MLLT11 log2FC (Gene 10962): -0.777 | YWHAQ log2FC (Gene 10971): 0.450 | IL24 log2FC (Gene 11009): -0.211 | RIPK3 log2FC (Gene 11035): 0.042 | PIM2 log2FC (Gene 11040): -0.863 | DIDO1 log2FC (Gene 11083): -0.773 | FAF1 log2FC (Gene 11124): 0.204 | CAPN10 log2FC (Gene 11132): -0.095 | NISCH log2FC (Gene 11188): 0.948 | CHEK2 log2FC (Gene 11200): 0.312 | AKAP13 log2FC (Gene 11214): -0.384 | DDX20 log2FC (Gene 11218): 0.500 | PDCD10 log2FC (Gene 11235): 0.541 | GABARAP log2FC (Gene 11337): 0.197 | ATF5 log2FC (Gene 22809): -1.275 | PHLDA1 log2FC (Gene 22822): -2.095 | CARD8 log2FC (Gene 22900): 0.190 | SNW1 log2FC (Gene 22938): 0.686 | TRIM32 log2FC (Gene 22954): -0.374 | ACIN1 log2FC (Gene 22985): -0.352 | TRIM35 log2FC (Gene 23087): 0.473 | KIF1B log2FC (Gene 23095): 0.166 | PSME4 log2FC (Gene 23198): 0.174 | ARHGEF9 log2FC (Gene 23229): 0.258 | PACS2 log2FC (Gene 23241): -0.307 | MCF2L log2FC (Gene 23263): 0.118 | TRIM2 log2FC (Gene 23321): 1.078 | ARHGEF12 log2FC (Gene 23365): 0.173 | PPP1R13B log2FC (Gene 23368): 0.098 | NCSTN log2FC (Gene 23385): 0.216 | ADNP log2FC (Gene 23394): 0.193 | SIRT1 log2FC (Gene 23411): 1.263
